Source: PubChem BioAssay AID1963448 (Molecular Pharmacology Branch, DTP, NCI, 2024)
pIC50: −log10 of the molar value.

Test system: 616215-338-R-J1-PDC complex spheroid growth, % test/control
Assay: Anticancer human tumor 616215-338-R-J1-PDC patient-derived colon adenocarcinoma cell line growth inhibition [Asc]
Settings: for pIC50: curve of first compound; for viability, T/C: stronger effect = lower value
Method in brief: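 Complex solid-tumor spheroids incorporating human endothelial and mesenchymal stem cells received single agents or combinations over half-log dilution ranges anchored to clinical Cmax.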
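Note: spheroids exposed to agents for seven days before readout.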
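Throughout, for viability, T/C: 100% = DMSO vehicle control viability.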

## NC(=O)C(=Cn1cnc(-c2cc(C(F)(F)F)cc(C(F)(F)F)c2)n1)c1cncnc1 + Cc1c(S(C)(=O)=O)c(-c2cc(F)cc(N3CCN(c4ccc(NS(=O)(=O)c5ccc(NC(CCN6CCC(C(=O)OCCCP(=O)(O)O)CC6)CSc6ccccc6)c(S(=O)(=O)C(F)(F)F)c5)cc4)CC3)c2)c(-c2ccc(Cl)cc2)n1C(C)C
Second compound 0.1 µM
  pIC50: < 6.52
Second compound 0.316 µM
  pIC50: 6.84
Second compound 1 µM
  pIC50: 7.44
Second compound 3.16 µM
  pIC50: > 9.02
Second compound 10 µM
  pIC50: > 9.02
Second compound 0.1 µM, first compound 0.000949 µM
  viability, T/C: 91.7%
Second compound 0.1 µM, first compound 0.003 µM
  viability, T/C: 91.1%
Second compound 0.1 µM, first compound 0.00949 µM
  viability, T/C: 87.2%
Second compound 0.1 µM, first compound 0.03 µM
  viability, T/C: 91.7%
Second compound 0.1 µM, first compound 0.0949 µM
  viability, T/C: 81%
Second compound 0.1 µM, first compound 0.3 µM
  viability, T/C: 71.8%
Second compound 0.316 µM, first compound 0.000949 µM
  viability, T/C: 95.6%
Second compound 0.316 µM, first compound 0.003 µM
  viability, T/C: 97.5%
Second compound 0.316 µM, first compound 0.00949 µM
  viability, T/C: 89.3%
Second compound 0.316 µM, first compound 0.03 µM
  viability, T/C: 78.8%
Second compound 0.316 µM, first compound 0.0949 µM
  viability, T/C: 64.7%
Second compound 0.316 µM, first compound 0.3 µM
  viability, T/C: 26.7%
Second compound 1 µM, first compound 0.000949 µM
  viability, T/C: 67%
Second compound 1 µM, first compound 0.003 µM
  viability, T/C: 71.3%
Second compound 1 µM, first compound 0.00949 µM
  viability, T/C: 68.5%
Second compound 1 µM, first compound 0.03 µM
  viability, T/C: 55.9%
Second compound 1 µM, first compound 0.0949 µM
  viability, T/C: 20.6%
Second compound 1 µM, first compound 0.3 µM
  viability, T/C: 1.76%
Second compound 3.16 µM, first compound 0.000949 µM
  viability, T/C: 41.7%
Second compound 3.16 µM, first compound 0.003 µM
  viability, T/C: 42.7%
Second compound 3.16 µM, first compound 0.00949 µM
  viability, T/C: 34.4%
Second compound 3.16 µM, first compound 0.03 µM
  viability, T/C: 24.3%
Second compound 3.16 µM, first compound 0.0949 µM
  viability, T/C: 2.24%
Second compound 3.16 µM, first compound 0.3 µM
  viability, T/C: 0.67%
Second compound 10 µM, first compound 0.000949 µM
  viability, T/C: 27.9%
Second compound 10 µM, first compound 0.003 µM
  viability, T/C: 25%
Second compound 10 µM, first compound 0.00949 µM
  viability, T/C: 19.2%
Second compound 10 µM, first compound 0.03 µM
  viability, T/C: 6.13%
Second compound 10 µM, first compound 0.0949 µM
  viability, T/C: 0.4%
Second compound 10 µM, first compound 0.3 µM
  viability, T/C: 0.25%

## NC1CCC(NC2CC2c2ccccc2)CC1 (stereo not given) + Cc1c(S(C)(=O)=O)c(-c2cc(F)cc(N3CCN(c4ccc(NS(=O)(=O)c5ccc(NC(CCN6CCC(C(=O)OCCCP(=O)(O)O)CC6)CSc6ccccc6)c(S(=O)(=O)C(F)(F)F)c5)cc4)CC3)c2)c(-c2ccc(Cl)cc2)n1C(C)C
Second compound 0.1 µM
  pIC50: < 7.00
Second compound 0.316 µM
  pIC50: < 7.00
Second compound 1 µM
  pIC50: < 7.00
Second compound 3.16 µM
  pIC50: > 9.50
Second compound 10 µM
  pIC50: > 9.50
Second compound 0.1 µM, first compound 0.000316 µM
  viability, T/C: 85.7%
Second compound 0.1 µM, first compound 0.001 µM
  viability, T/C: 83%
Second compound 0.1 µM, first compound 0.00316 µM
  viability, T/C: 89%
Second compound 0.1 µM, first compound 0.01 µM
  viability, T/C: 85.8%
Second compound 0.1 µM, first compound 0.0316 µM
  viability, T/C: 83.2%
Second compound 0.1 µM, first compound 0.1 µM
  viability, T/C: 81.7%
Second compound 0.316 µM, first compound 0.000316 µM
  viability, T/C: 86.5%
Second compound 0.316 µM, first compound 0.001 µM
  viability, T/C: 79.6%
Second compound 0.316 µM, first compound 0.00316 µM
  viability, T/C: 78.3%
Second compound 0.316 µM, first compound 0.01 µM
  viability, T/C: 78.7%
Second compound 0.316 µM, first compound 0.0316 µM
  viability, T/C: 79.5%
Second compound 0.316 µM, first compound 0.1 µM
  viability, T/C: 79%
Second compound 1 µM, first compound 0.000316 µM
  viability, T/C: 73.5%
Second compound 1 µM, first compound 0.001 µM
  viability, T/C: 68.1%
Second compound 1 µM, first compound 0.00316 µM
  viability, T/C: 64.8%
Second compound 1 µM, first compound 0.01 µM
  viability, T/C: 62.5%
Second compound 1 µM, first compound 0.0316 µM
  viability, T/C: 61.8%
Second compound 1 µM, first compound 0.1 µM
  viability, T/C: 60.8%
Second compound 3.16 µM, first compound 0.000316 µM
  viability, T/C: 37.5%
Second compound 3.16 µM, first compound 0.001 µM
  viability, T/C: 40.5%
Second compound 3.16 µM, first compound 0.00316 µM
  viability, T/C: 36.6%
Second compound 3.16 µM, first compound 0.01 µM
  viability, T/C: 32%
Second compound 3.16 µM, first compound 0.0316 µM
  viability, T/C: 31.2%
Second compound 3.16 µM, first compound 0.1 µM
  viability, T/C: 34.7%
Second compound 10 µM, first compound 0.000316 µM
  viability, T/C: 24.5%
Second compound 10 µM, first compound 0.001 µM
  viability, T/C: 22.4%
Second compound 10 µM, first compound 0.00316 µM
  viability, T/C: 21.8%
Second compound 10 µM, first compound 0.01 µM
  viability, T/C: 24%
Second compound 10 µM, first compound 0.0316 µM
  viability, T/C: 20%
Second compound 10 µM, first compound 0.1 µM
  viability, T/C: 21.5%
